Results published in patent publication US20220169639A1 (priority 2018, published 2022).

System: HBeAg (surrogate marker for cccDNA) in HepDES19 cells
Assay: Engineered HepDES19 primary screen assay (HBeAg ELISA)
Type: cell-based, HBV
Conditions: Hepatitis B virus, 120 h, HBeAg in culture supernatant, 5 days incubation, read-out: IC50 (HepDES19 primary screen assay, inhibition of extracellular HBeAg level)
Excerpt: The assay was employed to screen for cccDNA inhibitors. HepDES19 is a cccDNA-producing cell line. In this cell line, HBeAg in the cell culture supernatant as surrogate marker, as HBeAg production depends on cccDNA level and activity. HepDES19 is an engineered cell line which contains a 1.1 unit length HBV genome, and pgRNA transcription from the transgene is controlled by Tetracycline (Tet). In the absence of Tet, pgRNA transcription will be induced, but HBV e antigen (HBeAg) could not be produced from this pgRNA due to very short leader sequence before the HBeAg start codon and the start codon is disrupted. Only after cccDNA is formed, the missing leader sequence and start codon mutation would be restored from the 3′-terminal redundancy of pgRNA, and then HBeAg could be synthesized. Therefore, HBeAg could be used as a surrogate marker for cccDNA (Zhou, T. et al., Antiviral Res. (2006), 72(2), 116-124; Guo, H. et al., J. Virol. (2007), 81(22), 12472-12484).
HepDES19 cells were seeded at 2×10^6 cells per T150 flask and cultured with the culture medium (Dulbecco's Modified Eagle Medium: Nutrient Mixture F-12 [DMEM-F12, Gibco Cat. 11320-82], 10% Fetal Bovine Serum [FBS, Clontech Cat. 631101], 0.1 mM Non-Essential Amino Acids Solution [NEAA, Gibco Cat. 11140-050], 50 μg/mL Penicillin-Streptomycin [PS, Invitrogen Cat. 15140-163], 500 μg/mL Geneticin [G418, Invitrogen Cat. 10131-027]) containing 3 μg/mL Tet (Sigma, Cat. 87128) for 5 days. Cells were then seeded at 4×10^6 cells per T150 in the same culture medium as described above in the absence of Tet for 8 days. Cells were then harvested and frozen at density of 2×10^6 cells per mL. For compound testing, the frozen cells were thawed and seeded into 96-well plates at a density of 6×10^4 cells per well. At 24 hours after seeding, half log serial dilutions of compounds made with Dimethyl sulfoxide (DMSO, Sigma, Cat. D2650) were further diluted with the same culture medium as described above before they were added to the cells to reach desired final compound concentrations and 1% DMSO concentration. Plates were then incubated at 37° C. for another 5 days before measurement of HBeAg level and cell viability. Intracellular HBeAg level were measured with enzyme-linked immunosorbent assay (ELISA) kit (Shanghai Kehua Diagnostic Medical Products Co., Ltd). Cell viability was assessed using Cell Counting Kit-8 (DonJindo, Cat. CK04-20). IC50 values were derived from the dose-response curve using 4 parameter logistic curve fit method.
The compounds of the present invention were tested for their capacity to inhibit extracellular HBeAg level as described herein.

First: O=C(O)C1CC(=O)N(CCCOc2cc(Br)ccc2-c2cc(=O)c3cccc(Cl)c3o2)C1 (centres unmarked) [Example 169, 1-[3-[5-bromo-2-(8-chloro-4-oxo-chromen-2-yl)phenoxy]propyl]-5-oxo-pyrrolidine-3-carboxylic acid]
Second: O=C(O)[C@@H]1CCCN1CCCOc1cc(Br)ccc1-c1cc(=O)c2cccc(Cl)c2o1 [Example 004, (2S)-1-[3-[5-bromo-2-(8-chloro-4-oxo-chromen-2-yl)phenoxy]propyl]pyrrolidine-2-carboxylic acid]
The IC50 of the first is 2-fold lower: 990 nM for the first, 2020 nM for the second. The first is the more potent here.

First: CC(NCCOc1cc(C(F)(F)F)ccc1-c1cc(=O)c2cccc(Cl)c2o1)C(=O)O (centres unmarked) [Example 057, 2-[2-[2-(8-chloro-4-oxo-chromen-2-yl)-5-(trifluoromethyl)phenoxy]ethylamino]propanoic acid]
Second: CC(C)[C@@H](NCCCOc1cc(C(F)(F)F)ccc1-c1cc(=O)c2cccc(Cl)c2o1)C(=O)O [Example 009, (2R)-2-[3-[2-(8-chloro-4-oxo-chromen-2-yl)-5-(trifluoromethyl)phenoxy]propylamino]-3-methyl-butanoic acid]
The IC50 of the first is 5-fold lower: 1500 nM for the first, 7470 nM for the second. The first is the more potent here.

Going from O=C(O)CN(CCCOc1cc(C(F)(F)F)ccc1-c1cc(=O)c2cccc(Cl)c2o1)S(=O)(=O)c1ccccc1 [Example 143] to O=c1cc(-c2ccc(C(F)(F)F)cc2OCCCNS(=O)(=O)c2ccccc2)oc2c(Cl)cccc12 [Example 097], the IC50 falls from 2420 nM to 1160 nM (2.1-fold). The second is the more potent here.

Compared with O=c1cc(-c2ccc(C(F)(F)F)cc2OCC(O)CNS(=O)(=O)C2CC2)oc2c(Cl)cccc12 (centres unmarked) [Example 086, N-[3-[2-(8-chloro-4-oxo-chromen-2-yl)-5-(trifluoromethyl)phenoxy]-2-hydroxy-propyl]cyclopropanesulfonamide], O=C(NCCOc1cc(C(F)(F)F)ccc1-c1cc(=O)c2cccc(Cl)c2o1)C(=O)NC1CC1 [Example 148, N-[2-[2-(8-chloro-4-oxo-chromen-2-yl)-5-(trifluoromethyl)phenoxy]ethyl]-N′-cyclopropyl-oxamide] is 2.7-fold lower in IC50: 3220 nM for the first, 1210 nM for the second.

Going from O=C(O)C(=O)NCCOc1cc(Br)ccc1-c1cc(=O)c2cccc(Cl)c2o1 [Example 113] to CCOC(=O)NCCOc1cc(Br)ccc1-c1cc(=O)c2cccc(Cl)c2o1 [Example 106], the IC50 rises from 490 nM to 1100 nM (2.2-fold). The first is the more potent here.

Compared with Cc1ccc(-c2cc(=O)c3cccc(Cl)c3o2)c(OCCNC(=O)NCC(=O)O)c1 [Example 154], CCOC(=O)C(=O)NCCOc1cc(C)ccc1-c1cc(=O)c2cccc(Cl)c2o1 [Example 109, ethyl 2-[2-[2-(8-chloro-4-oxo-chromen-2-yl)-5-methyl-phenoxy]ethylamino]-2-oxo-acetate] is 2.9-fold higher in IC50: 1430 nM for the first, 4110 nM for the second.

Going from CCNS(=O)(=O)N(C)CCOc1cc(C)ccc1-c1cc(=O)c2cccc(Cl)c2o1 [Example 136, 8-chloro-2-[2-[2-[ethylsulfamoyl(methyl)amino]ethoxy]-4-methyl-phenyl]-4-oxo-chromene] to Cc1ccc(-c2cc(=O)c3cccc(Cl)c3o2)c(OCCNC(=O)C(=O)N2CC[C@H](O)C2)c1 [Example 150, N-[2-[2-(8-chloro-4-oxo-chromen-2-yl)-5-methyl-phenoxy]ethyl]-2-[(3S)-3-hydroxypyrrolidin-1-yl]-2-oxo-acetamide], the IC50 rises from 580 nM to 12200 nM (21-fold). The first is the more potent here.

Compared with COc1ccc(-c2cc(=O)c3cccc(Cl)c3o2)c(OCCNC(=O)C(N)=O)c1 [Example 147, N′-[2-[2-(8-chloro-4-oxo-chromen-2-yl)-5-methoxy-phenoxy]ethyl]oxamide], CCOC(=O)C(=O)NCCOc1cc(OC)c(Br)cc1-c1cc(=O)c2cccc(Cl)c2o1 [Example 102] is 2.4-fold higher in IC50: 1200 nM for the first, 2910 nM for the second.

First: CC(=O)N(CCCOc1cc(C(F)(F)F)ccc1-c1cc(=O)c2cccc(Cl)c2o1)CC(=O)O [Example 144]
Second: CCC(=O)NCCCOc1cc(C(F)(F)F)ccc1-c1cc(=O)c2cccc(Cl)c2o1 [Example 099]
The IC50 of the first is 1.8-fold higher: 11400 nM for the first, 6470 nM for the second.

Compared with C[C@@H]1CN(CCOc2cc(Br)ccc2-c2cc(=O)c3cccc(Cl)c3o2)C[C@H]1C(=O)O [Example 024, (3S,4S)-1-[2-[5-bromo-2-(8-chloro-4-oxo-chromen-2-yl)phenoxy]ethyl]-4-methyl-pyrrolidine-3-carboxylic acid], O=C(O)[C@H]1CCCN1CCCOc1cc(Br)ccc1-c1cc(=O)c2cccc(Cl)c2o1 [Example 003, (2R)-1-[3-[5-bromo-2-(8-chloro-4-oxo-chromen-2-yl)phenoxy]propyl]pyrrolidine-2-carboxylic acid] is 2.3-fold higher in IC50: 1040 nM for the first, 2410 nM for the second. The first is the more potent here.

Compared with O=C(O)C1CN(CCOc2cc(C(F)(F)F)ccc2-c2cc(=O)c3cccc(Cl)c3o2)CCO1 (centres unmarked) [Example 035, 4-[2-[2-(8-chloro-4-oxo-chromen-2-yl)-5-(trifluoromethyl)phenoxy]ethyl]morpholine-2-carboxylic acid], O=C(O)[C@H]1CCN(CCOc2cc(C(F)(F)F)ccc2-c2cc(=O)c3cccc(Cl)c3o2)C1 [Example 034, (3S)-1-[2-[2-(8-chloro-4-oxo-chromen-2-yl)-5-(trifluoromethyl)phenoxy]ethyl]pyrrolidine-3-carboxylic acid] is 2.1-fold lower in IC50: 2380 nM for the first, 1120 nM for the second. The second is the more potent here.

Cc1cc(-c2cc(=O)c3cccc(Cl)c3o2)c(OCCN2CCC[C@@H]2C(=O)O)cc1Br [Example 044, (2R)-1-[2-[5-bromo-2-(8-chloro-4-oxo-chromen-2-yl)-4-methyl-phenoxy]ethyl]pyrrolidine-2-carboxylic acid] and Cc1cc(-c2cc(=O)c3cccc(Cl)c3o2)c(OCCOCCN2CCC[C@@H]2C(=O)O)cc1Br [Example 048, (2R)-1-[2-[2-[5-bromo-2-(8-chloro-4-oxo-chromen-2-yl)-4-methyl-phenoxy]ethoxy]ethyl]pyrrolidine-2-carboxylic acid] are within 1.5-fold of each other in IC50: 4750 nM for the first, 6680 nM for the second.

O=c1cc(-c2ccc(Br)cc2OCCOCCN2CCOCC2)oc2c(Cl)cccc12 [Example 090, 2-[4-bromo-2-[2-(2-morpholinoethoxy)ethoxy]phenyl]-8-chloro-chromen-4-one] and O=C(O)C1CCN(CCOc2ccccc2-c2cc(=O)c3cccc(Cl)c3o2)CC1 [Example 029, 1-[2-[2-(8-chloro-4-oxo-chromen-2-yl)phenoxy]ethyl]piperidine-4-carboxylic acid] are within 1.5-fold of each other in IC50: 1300 nM for the first, 1850 nM for the second.

Going from CC(C)COc1ccc(-c2cc(=O)c3cccc(Cl)c3o2)c(OCCN2CC[C@H](C(=O)O)C2)c1 [Example 040, (3S)-1-[2-[2-(8-chloro-4-oxo-chromen-2-yl)-5-isobutoxy-phenoxy]ethyl]pyrrolidine-3-carboxylic acid] to O=C(O)C1CN(CCOc2ccccc2-c2cc(=O)c3cccc(Cl)c3o2)C1 [Example 033, 1-[2-[2-(8-chloro-4-oxo-chromen-2-yl)phenoxy]ethyl]azetidine-3-carboxylic acid], the IC50 falls from 9060 nM to 1090 nM (8.3-fold).

Going from Cc1ccc(-c2cc(=O)c3cccc(Cl)c3o2)c(O[C@H]2CCN(C(=O)C(=O)O)C2)c1 [Example 132] to O=C(O)C(=O)N1CC[C@@H](Oc2cc(C(F)(F)F)ccc2-c2cc(=O)c3cccc(Cl)c3o2)C1 [Example 130], the IC50 rises from 350 nM to 4820 nM (14-fold). The first is the more potent here.

Going from O=C(O)c1cccc(CN2CCC(Oc3cc(Br)ccc3-c3cc(=O)c4cccc(Cl)c4o3)CC2)c1 [Example 128] to O=C(O)C(=O)NC1(COc2cc(C(F)(F)F)ccc2-c2cc(=O)c3cccc(Cl)c3o2)CC1 [Example 110, 2-[[1-[[2-(8-chloro-4-oxo-chromen-2-yl)-5-(trifluoromethyl)phenoxy]methyl]cyclopropyl]amino]-2-oxo-acetic acid], the IC50 rises from 270 nM to 3760 nM (14-fold). The first is the more potent here.

O=c1cc(-c2ccc(C(F)(F)F)cc2OCCCNC2CCS(=O)(=O)CC2)oc2c(Cl)cccc12 [Example 078, 8-chloro-2-[2-[3-[(1,1-dioxothian-4-yl)amino]propoxy]-4-(trifluoromethyl)phenyl]chromen-4-one] and CS(=O)(=O)NC(=O)C1CN(CCOc2cc(C(F)(F)F)ccc2-c2cc(=O)c3cccc(Cl)c3o2)CCO1 (centres unmarked) [Example 068, 4-[2-[2-(8-chloro-4-oxo-chromen-2-yl)-5-(trifluoromethyl)phenoxy]ethyl]-N-methylsulfonyl-morpholine-2-carboxamide] are within 1.5-fold of each other in IC50: 7800 nM for the first, 5510 nM for the second.

Work on CC(C)(COc1cc(C(F)(F)F)ccc1-c1cc(=O)c2cccc(Cl)c2o1)NC(=O)C(=O)O [Example 115] yielded an IC50 of 1040 nM.
